# Columns and labels:
# Test in all cases: In vitro antibacterial evaluation: minimum inhibitory concentration (MIC), broth dilution method
# Type in all cases: cell-based
# Streptococcus sp. = conditions: broth dilution, 18 hours at 35° C.
# Method in brief: (§1)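 Using Muller-Hinton II […] and an inoculum of 5×10^5 CFU/mL, antibiotic dilutions from 64 down to 0.06 μg/mL were tested following NCCLS M7-A2. The MIC is the lowest concentration inhibiting growth, including in methicillin-, penicillin- or vancomycin-resistant clinical isolates.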
# Staphylococcus sp. = conditions: broth dilution, 18 hours at 35° C.; for MIC Staphylococcus aureus-SMITH (GC 4543): strain SMITH GC 4543
# Method in brief: as §1
# Enterococcus sp. = conditions: broth dilution, 18 hours at 35° C.
# Method in brief: as §1
# Escherichia coli = conditions: broth dilution, 18 hours at 35° C.
# [1] = Streptococcus agalactiae (GC 4564)
# [2] = Streptococcus pneumoniae (ATCC 6301)
# [3] = Streptococcus pneumoniae (GC 1894)
# [4] = Streptococcus pneumoniae (GC 4565)
# [5] = Streptococcus pyogenes (GC 4563)
# [6] = Enterococcus faecalis (ATCC 29212)
# [7] = Enterococcus faecalis (GC 2242)
# [8] = Enterococcus faecalis (GC 2691)
# [9] = Enterococcus faecalis (GC 3059)
# [10] = Enterococcus faecalis (GC 4552)
# [11] = Enterococcus faecalis (GC 4553)
# [12] = Enterococcus faecalis (GC 4554)
# [13] = Enterococcus faecalis (GC 6189)
smiles,measurement,setting,value
"CC(c1ccccc1)C1NC(=O)CNC(=O)C(CO)NC(=O)C(CC2CNC(=N)N2C2OC(CO)C(O)C(O)C2O)NC(=O)C(CC2CNC(=N)N2)NC(=O)C(Cc2ccc3oc(-c4ccc5c(c4)Cc4ccccc4-5)nc3c2)NC1=O (stereo not drawn) [Example 42, Cyclo[3-[2-(9H-fluoren-2-yl)-1,3-benzoxazol-5-yl]alanyl-3-(2-iminoimidazolidin-4-yl)alanyl-3-(3-hexopyranosyl-2-iminoimidazolidin-4-yl)alanylserylglycyl-β-methylphenylalanyl]]",MIC Streptococcus agalactiae (GC 4564),Streptococcus sp.; [1],8 µg/mL
same,MIC Streptococcus pneumoniae (ATCC 6301),Streptococcus sp.; [2],8 µg/mL
same,MIC Streptococcus pneumoniae (GC 1894),Streptococcus sp.; [3],16 µg/mL
same,MIC Streptococcus pneumoniae (GC 4565),Streptococcus sp.; [4],16 µg/mL
same,MIC Streptococcus pyogenes (GC 4563),Streptococcus sp.; [5],4 µg/mL
same,MIC Streptococcus agalactiae (GC 4564),Streptococcus sp.,8 µg/mL
same,MIC Streptococcus pneumoniae (ATCC 6301),Streptococcus sp.,8 µg/mL
same,MIC Streptococcus pneumoniae (GC 1894),Streptococcus sp.,16 µg/mL
same,MIC Streptococcus pneumoniae (GC 4565),Streptococcus sp.,16 µg/mL
same,MIC Streptococcus pyogenes (GC 4563),Streptococcus sp.,4 µg/mL
same,MIC Coagulase Negative Staphylococcus (GC 4547),Staphylococcus sp.,2 µg/mL
same,MIC Coagulase Negative Staphylococcus (GC 4548),Staphylococcus sp.,1 µg/mL
same,MIC Coagulase Negative Staphylococcus (GC 4549),Staphylococcus sp.,1 µg/mL
same,MIC Coagulase Negative Staphylococcus (GC 4551),Staphylococcus sp.,4 µg/mL
same,MIC Coagulase Negative Staphylococcus (GC 6257),Staphylococcus sp.,1 µg/mL
same,MIC Staphylococcus aureus SMITH (GC 4543),Staphylococcus sp.,2 µg/mL
same,MIC Staphylococcus haemolyticus (GC 4546),Staphylococcus sp.,2 µg/mL
same,MIC Staphylococcus aureus-SMITH (GC 4543),Staphylococcus sp.,2 µg/mL
same,MIC Enterococcus avium (GC 4558),Enterococcus sp.; Enterococcus avium (GC 4558),4 µg/mL
same,MIC Enterococcus faecalis (ATCC 29212),Enterococcus sp.; [6],8 µg/mL
same,MIC Enterococcus faecalis (GC 2242),Enterococcus sp.; [7],8 µg/mL
same,MIC Enterococcus faecalis (GC 2691),Enterococcus sp.; [8],8 µg/mL
same,MIC Enterococcus faecalis (GC 3059),Enterococcus sp.; [9],16 µg/mL
same,MIC Enterococcus faecalis (GC 4552),Enterococcus sp.; [10],8 µg/mL
same,MIC Enterococcus faecalis (GC 4553),Enterococcus sp.; [11],8 µg/mL
same,MIC Enterococcus faecalis (GC 4554),Enterococcus sp.; [12],8 µg/mL
same,MIC Enterococcus faecalis (GC 6189),Enterococcus sp.; [13],8 µg/mL
same,MIC Enterococcus faecium (GC 2243),Enterococcus sp.; Enterococcus faecium (GC 2243),4 µg/mL
same,MIC Enterococcus faecium (GC 4556),Enterococcus sp.; Enterococcus faecium (GC 4556),16 µg/mL
same,MIC Enterococcus faecium (GC 4557),Enterococcus sp.; Enterococcus faecium (GC 4557),2 µg/mL
same,MIC Enterococcus avium (GC 4558),Enterococcus sp.,4 µg/mL
same,MIC Enterococcus faecalis (ATCC 29212),Enterococcus sp.,8 µg/mL
same,MIC Enterococcus faecalis (GC 2242),Enterococcus sp.,8 µg/mL
same,MIC Enterococcus faecalis (GC 2691),Enterococcus sp.,8 µg/mL
same,MIC Enterococcus faecalis (GC 3059),Enterococcus sp.,16 µg/mL
same,MIC Enterococcus faecalis (GC 4552),Enterococcus sp.,8 µg/mL
same,MIC Enterococcus faecalis (GC 4553),Enterococcus sp.,8 µg/mL
same,MIC Enterococcus faecalis (GC 4554),Enterococcus sp.,8 µg/mL
same,MIC Enterococcus faecalis (GC 6189),Enterococcus sp.,8 µg/mL
same,MIC Enterococcus faecium (GC 2243),Enterococcus sp.,4 µg/mL
same,MIC Enterococcus faecium (GC 4556),Enterococcus sp.,16 µg/mL
same,MIC Enterococcus faecium (GC 4557),Enterococcus sp.,2 µg/mL
same,MIC Escherichia coli (ATCC 25922),Escherichia coli,32 µg/mL
same,MIC Escherichia coli (GC 4559),Escherichia coli,32 µg/mL
same,MIC Escherichia coli (GC 4560),Escherichia coli,1 µg/mL
"CC(c1ccccc1)C1NC(=O)CNC(=O)C(CO)NC(=O)C(C(O)C2CNC(=N)N2C2OC(CO)C(O)C(O)C2O)NC(=O)C(C(O)C2CNC(=N)N2)NC(=O)C(Cc2ccc3oc(SCc4ccccc4)nc3c2)NC1=O (stereo not drawn) [Example 45, Cyclo[3-[2-(benzylthio)-1,3-benzoxazol-5-yl]alanyl-3-(2-iminoimidazolidin-4-yl)seryl-3-(3-hexopyranosyl-2-iminoimidazolidin-4-yl)serylserylglycyl-β-methylphenylalanyl]]",MIC Streptococcus agalactiae (GC 4564),Streptococcus sp.; [1],16 µg/mL
same,MIC Streptococcus pneumoniae (ATCC 6301),Streptococcus sp.; [2],16 µg/mL
same,MIC Streptococcus pneumoniae (GC 1894),Streptococcus sp.; [3],16 µg/mL
same,MIC Streptococcus pneumoniae (GC 4565),Streptococcus sp.; [4],32 µg/mL
same,MIC Streptococcus pyogenes (GC 4563),Streptococcus sp.; [5],4 µg/mL
same,MIC Streptococcus agalactiae (GC 4564),Streptococcus sp.,16 µg/mL
same,MIC Streptococcus pneumoniae (ATCC 6301),Streptococcus sp.,16 µg/mL
same,MIC Streptococcus pneumoniae (GC 1894),Streptococcus sp.,16 µg/mL
same,MIC Streptococcus pneumoniae (GC 4565),Streptococcus sp.,32 µg/mL
same,MIC Streptococcus pyogenes (GC 4563),Streptococcus sp.,4 µg/mL
same,MIC Coagulase Negative Staphylococcus (GC 4547),Staphylococcus sp.,4 µg/mL
same,MIC Coagulase Negative Staphylococcus (GC 4548),Staphylococcus sp.,8 µg/mL
same,MIC Coagulase Negative Staphylococcus (GC 4549),Staphylococcus sp.,4 µg/mL
same,MIC Coagulase Negative Staphylococcus (GC 4551),Staphylococcus sp.,8 µg/mL
same,MIC Coagulase Negative Staphylococcus (GC 6257),Staphylococcus sp.,4 µg/mL
same,MIC Staphylococcus aureus SMITH (GC 4543),Staphylococcus sp.,8 µg/mL
same,MIC Staphylococcus haemolyticus (GC 4546),Staphylococcus sp.,4 µg/mL
same,MIC Staphylococcus aureus-SMITH (GC 4543),Staphylococcus sp.,8 µg/mL
same,MIC Enterococcus avium (GC 4558),Enterococcus sp.; Enterococcus avium (GC 4558),8 µg/mL
same,MIC Enterococcus faecalis (ATCC 29212),Enterococcus sp.; [6],32 µg/mL
same,MIC Enterococcus faecalis (GC 2242),Enterococcus sp.; [7],16 µg/mL
same,MIC Enterococcus faecalis (GC 2691),Enterococcus sp.; [8],32 µg/mL
same,MIC Enterococcus faecalis (GC 3059),Enterococcus sp.; [9],32 µg/mL
same,MIC Enterococcus faecalis (GC 4552),Enterococcus sp.; [10],16 µg/mL
same,MIC Enterococcus faecalis (GC 4553),Enterococcus sp.; [11],16 µg/mL
same,MIC Enterococcus faecalis (GC 4554),Enterococcus sp.; [12],16 µg/mL
same,MIC Enterococcus faecalis (GC 6189),Enterococcus sp.; [13],16 µg/mL
same,MIC Enterococcus faecium (GC 2243),Enterococcus sp.; Enterococcus faecium (GC 2243),16 µg/mL
same,MIC Enterococcus faecium (GC 4556),Enterococcus sp.; Enterococcus faecium (GC 4556),32 µg/mL
same,MIC Enterococcus faecium (GC 4557),Enterococcus sp.; Enterococcus faecium (GC 4557),4 µg/mL
same,MIC Enterococcus avium (GC 4558),Enterococcus sp.,8 µg/mL
same,MIC Enterococcus faecalis (ATCC 29212),Enterococcus sp.,32 µg/mL
same,MIC Enterococcus faecalis (GC 2242),Enterococcus sp.,16 µg/mL
same,MIC Enterococcus faecalis (GC 2691),Enterococcus sp.,32 µg/mL
same,MIC Enterococcus faecalis (GC 3059),Enterococcus sp.,32 µg/mL
same,MIC Enterococcus faecalis (GC 4552),Enterococcus sp.,16 µg/mL
same,MIC Enterococcus faecalis (GC 4553),Enterococcus sp.,16 µg/mL
same,MIC Enterococcus faecalis (GC 4554),Enterococcus sp.,16 µg/mL
same,MIC Enterococcus faecalis (GC 6189),Enterococcus sp.,16 µg/mL
same,MIC Enterococcus faecium (GC 2243),Enterococcus sp.,16 µg/mL
same,MIC Enterococcus faecium (GC 4556),Enterococcus sp.,32 µg/mL
same,MIC Enterococcus faecium (GC 4557),Enterococcus sp.,4 µg/mL
same,MIC Escherichia coli (ATCC 25922),Escherichia coli,16 µg/mL
same,MIC Escherichia coli (GC 4559),Escherichia coli,16 µg/mL
same,MIC Escherichia coli (GC 4560),Escherichia coli,4 µg/mL

# Reference: patent US8247211B2, “Glycopeptide antibiotics” (American Cyanamid Company, priority 2001, dated 2012)
